Experimental data published in ChEMBL document CHEMBL4425144, “Discovery and Structural Optimization of N5-Substituted 6,7-Dioxo-6,7-dihydropteridines as Potent and Selective Epidermal Growth Factor Receptor (EGFR) Inhibitors against L858R/T790M Resistance Mutation” (J Med Chem, 2016).
pIC50: −log10 of the molar value.

Key:
A-431 = assay: Antiproliferative activity against human A431 cells incubated for 72 hrs by SRB assay; format: functional, cell-based; settings: A-431, 72 h
[1] = AUC (0 to infinity) in ICR mouse at 1 mg/kg, iv by LC-MS/MS method; format: ADME, organism-based; parameters: dose 1 mg/kg, route intravenous, time infinity; settings: in vivo
[2] = Tmax in ICR mouse at 1 mg/kg, iv by LC-MS/MS method; format: ADME, organism-based; settings: in vivo
[3] = molecular target: Receptor tyrosine-protein kinase erbB-4 (Homo sapiens) (UniProt Q15303); assay: Inhibition of human ERBB4 expressed in bacterial system assessed as remaining enzyme activity at 1000 nM relative to untreated control
Receptor tyrosine-protein kinase erbB-4 (Homo sapiens), sequence (Q15303 whole entry): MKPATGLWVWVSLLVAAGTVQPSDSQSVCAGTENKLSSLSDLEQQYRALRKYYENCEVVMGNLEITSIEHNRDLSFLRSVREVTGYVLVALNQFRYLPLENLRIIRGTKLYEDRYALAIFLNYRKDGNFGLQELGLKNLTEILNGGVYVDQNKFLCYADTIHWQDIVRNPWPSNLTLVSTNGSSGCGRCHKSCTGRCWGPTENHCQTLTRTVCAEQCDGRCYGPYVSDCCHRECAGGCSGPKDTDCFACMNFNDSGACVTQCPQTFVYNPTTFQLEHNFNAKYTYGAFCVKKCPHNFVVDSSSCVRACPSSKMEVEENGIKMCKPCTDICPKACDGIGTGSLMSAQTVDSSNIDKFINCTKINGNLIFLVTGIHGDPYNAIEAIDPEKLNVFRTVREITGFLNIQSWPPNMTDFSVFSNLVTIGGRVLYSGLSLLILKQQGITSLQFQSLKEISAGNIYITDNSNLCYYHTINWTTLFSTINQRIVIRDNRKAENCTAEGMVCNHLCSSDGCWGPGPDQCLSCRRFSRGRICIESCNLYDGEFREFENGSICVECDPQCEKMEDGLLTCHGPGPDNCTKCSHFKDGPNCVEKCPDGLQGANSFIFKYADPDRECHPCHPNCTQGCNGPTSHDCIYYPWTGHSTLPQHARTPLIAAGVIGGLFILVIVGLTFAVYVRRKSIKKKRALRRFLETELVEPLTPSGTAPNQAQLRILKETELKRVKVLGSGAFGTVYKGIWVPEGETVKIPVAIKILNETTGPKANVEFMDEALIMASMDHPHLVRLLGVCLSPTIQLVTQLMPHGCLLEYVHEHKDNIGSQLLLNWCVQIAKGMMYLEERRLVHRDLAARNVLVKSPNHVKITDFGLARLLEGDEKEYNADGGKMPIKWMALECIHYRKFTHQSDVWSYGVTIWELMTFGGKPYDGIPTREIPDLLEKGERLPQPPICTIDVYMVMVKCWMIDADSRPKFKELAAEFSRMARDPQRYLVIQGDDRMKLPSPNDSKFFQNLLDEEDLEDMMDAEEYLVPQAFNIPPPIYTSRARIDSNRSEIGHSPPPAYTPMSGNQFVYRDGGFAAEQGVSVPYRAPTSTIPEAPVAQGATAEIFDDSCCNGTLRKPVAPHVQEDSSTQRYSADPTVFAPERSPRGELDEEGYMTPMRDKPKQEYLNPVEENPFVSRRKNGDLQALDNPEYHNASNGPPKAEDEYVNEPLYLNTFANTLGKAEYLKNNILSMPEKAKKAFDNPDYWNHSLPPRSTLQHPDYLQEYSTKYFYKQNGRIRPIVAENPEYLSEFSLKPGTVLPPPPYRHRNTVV

NCI-H1975 = assay: Antiproliferative activity against human NCI-H1975 cells incubated for 72 hrs by SRB assay; format: functional, cell-based; settings: NCI-H1975, 72 h
[4] = molecular target: T1, Mitogen-activated protein kinase kinase kinase 6 (Homo sapiens) (UniProt O95382); assay: Inhibition of human ASK2 expressed in mammalian system assessed as remaining enzyme activity at 1000 nM relative to untreated control
T1 sequence (whole entry): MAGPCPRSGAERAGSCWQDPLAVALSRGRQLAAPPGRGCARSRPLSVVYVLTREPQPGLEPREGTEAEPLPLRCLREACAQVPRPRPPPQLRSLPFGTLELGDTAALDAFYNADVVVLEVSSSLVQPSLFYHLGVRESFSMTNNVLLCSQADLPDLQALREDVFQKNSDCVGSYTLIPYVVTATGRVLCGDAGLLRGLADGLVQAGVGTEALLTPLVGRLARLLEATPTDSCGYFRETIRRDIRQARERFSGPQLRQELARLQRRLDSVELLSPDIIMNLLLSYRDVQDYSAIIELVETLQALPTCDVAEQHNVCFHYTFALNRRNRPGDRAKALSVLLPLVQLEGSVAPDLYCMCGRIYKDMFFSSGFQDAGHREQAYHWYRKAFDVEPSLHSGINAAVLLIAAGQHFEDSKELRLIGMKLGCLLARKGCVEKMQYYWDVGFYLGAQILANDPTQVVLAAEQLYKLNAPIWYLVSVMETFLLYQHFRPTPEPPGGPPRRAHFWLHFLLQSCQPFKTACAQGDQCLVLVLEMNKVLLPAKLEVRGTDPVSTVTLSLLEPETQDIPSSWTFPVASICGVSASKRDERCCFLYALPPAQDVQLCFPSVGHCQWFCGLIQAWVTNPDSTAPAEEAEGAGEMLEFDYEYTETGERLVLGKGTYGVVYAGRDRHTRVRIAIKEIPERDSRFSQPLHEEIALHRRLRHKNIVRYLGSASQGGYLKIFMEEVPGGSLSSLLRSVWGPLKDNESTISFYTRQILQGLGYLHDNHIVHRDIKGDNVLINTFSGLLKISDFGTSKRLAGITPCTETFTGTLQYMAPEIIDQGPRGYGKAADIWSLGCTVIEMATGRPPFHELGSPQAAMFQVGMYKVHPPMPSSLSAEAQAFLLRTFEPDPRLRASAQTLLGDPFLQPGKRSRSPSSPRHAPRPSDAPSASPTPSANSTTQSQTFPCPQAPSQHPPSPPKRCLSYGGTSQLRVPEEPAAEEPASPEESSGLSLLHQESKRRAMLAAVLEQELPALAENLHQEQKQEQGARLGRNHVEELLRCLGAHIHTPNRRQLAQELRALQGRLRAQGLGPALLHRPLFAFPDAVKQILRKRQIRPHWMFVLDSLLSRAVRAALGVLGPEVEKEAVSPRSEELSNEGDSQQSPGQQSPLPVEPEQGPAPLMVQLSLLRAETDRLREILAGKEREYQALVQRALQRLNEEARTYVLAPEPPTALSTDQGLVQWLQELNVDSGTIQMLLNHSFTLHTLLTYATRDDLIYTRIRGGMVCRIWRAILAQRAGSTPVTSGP

[5] = molecular target: T2, Cyclin-G-associated kinase (Homo sapiens) (UniProt O14976); assay: Inhibition of human GAK expressed in bacterial system assessed as remaining enzyme activity at 1000 nM relative to untreated control
T2 sequence (whole entry): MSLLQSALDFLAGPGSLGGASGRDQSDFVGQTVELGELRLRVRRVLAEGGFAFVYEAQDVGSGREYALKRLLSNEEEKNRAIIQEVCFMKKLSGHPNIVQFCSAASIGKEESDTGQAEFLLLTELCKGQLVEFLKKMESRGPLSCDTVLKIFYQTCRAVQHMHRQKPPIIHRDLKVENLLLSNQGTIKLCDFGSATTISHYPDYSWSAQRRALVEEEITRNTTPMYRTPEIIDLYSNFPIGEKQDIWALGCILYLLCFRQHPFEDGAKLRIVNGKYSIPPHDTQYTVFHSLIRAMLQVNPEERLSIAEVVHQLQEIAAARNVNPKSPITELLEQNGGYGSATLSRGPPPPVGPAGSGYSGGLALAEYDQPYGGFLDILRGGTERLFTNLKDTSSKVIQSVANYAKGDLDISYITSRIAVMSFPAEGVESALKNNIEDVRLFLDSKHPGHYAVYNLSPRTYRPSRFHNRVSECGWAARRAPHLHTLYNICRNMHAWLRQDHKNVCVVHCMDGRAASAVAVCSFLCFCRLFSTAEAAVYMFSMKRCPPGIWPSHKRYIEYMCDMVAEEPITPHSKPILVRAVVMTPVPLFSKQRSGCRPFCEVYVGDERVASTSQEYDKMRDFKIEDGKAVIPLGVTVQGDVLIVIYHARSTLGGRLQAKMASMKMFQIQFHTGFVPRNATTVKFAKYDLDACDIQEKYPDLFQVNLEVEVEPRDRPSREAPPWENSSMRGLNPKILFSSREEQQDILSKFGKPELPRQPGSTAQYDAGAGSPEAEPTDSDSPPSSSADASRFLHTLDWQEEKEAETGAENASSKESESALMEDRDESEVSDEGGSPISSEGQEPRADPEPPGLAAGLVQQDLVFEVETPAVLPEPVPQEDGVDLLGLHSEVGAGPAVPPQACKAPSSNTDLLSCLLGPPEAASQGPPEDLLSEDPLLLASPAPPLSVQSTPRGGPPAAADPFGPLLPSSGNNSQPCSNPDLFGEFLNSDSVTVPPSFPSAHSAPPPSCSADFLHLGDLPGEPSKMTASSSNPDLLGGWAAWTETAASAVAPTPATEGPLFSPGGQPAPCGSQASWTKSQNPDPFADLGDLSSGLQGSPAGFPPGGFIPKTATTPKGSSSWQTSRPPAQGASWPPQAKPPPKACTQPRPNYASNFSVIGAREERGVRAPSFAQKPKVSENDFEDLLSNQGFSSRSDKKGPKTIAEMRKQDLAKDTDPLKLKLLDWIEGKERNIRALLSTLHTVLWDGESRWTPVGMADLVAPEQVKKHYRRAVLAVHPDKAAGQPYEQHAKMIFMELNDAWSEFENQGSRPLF

[6] = Clearance in ICR mouse at 1 mg/kg, iv by LC-MS/MS method; format: ADME, organism-based; settings: in vivo

## C=CC(=O)Nc1cccc(-n2c(=O)c(=O)n(C(C)C)c3cnc(Nc4ccc(N5CCN(C)CC5)cc4OC)nc32)c1
A-431
  pIC50: 5.11
[1]
  AUC(0-inf): 143 ng·h/mL
[2]
  Tmax: 54 min
[3]
  Activity: < 1%
NCI-H1975
  pIC50: 7.74
[4]
  Activity: < 1%
[5]
  Activity: < 1%
[6]
  clearance: 117 mL/min/kg
